Experimental data reported in publication PMC11019538, “Biophysics-Guided Lead Discovery of HBV Capsid Assembly Modifiers” (ACS Infectious Diseases, 2024).
Like-named read-outs stand apart in the source and are kept apart here.

Columns and labels:
Cp149 capsid assembly [1] = target: T1, Cp149 capsid assembly (Hepatitis B virus genotype D subtype adw, UniProt P03147); assay: Transmission electron microscopy of assembled Cp149 products; format: biochemical; settings: 20 μM Cp149, 40 μM compound
T1 construct: The N-terminal domain of Cp (Cp149) is sufficient for forming regular capsids; made in house; host or cells: E. coli BL21(DE3)
T1 sequence (P03147 1-149): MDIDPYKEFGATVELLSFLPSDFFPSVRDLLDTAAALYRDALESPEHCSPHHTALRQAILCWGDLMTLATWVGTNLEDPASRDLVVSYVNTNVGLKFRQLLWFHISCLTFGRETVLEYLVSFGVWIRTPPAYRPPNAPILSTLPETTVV
Experimental: The assembled samples of Cp149 were prepared as described in the Size Exclusion Chromatography section. Eight μL of each sample was added onto the 300 mesh Lacey Formvar carbon–copper grids (Ted Pella, Inc.) and allowed to sit for 1.5 min. The grid was then rinsed in 500 mL of deionized water for 10 s twice to rinse off the extra buffer on the grid. After drying, the sample was stained with 8 μL of 2% uranyl acetate for 1 min. After removal and drying of the uranyl acetate solution, the sample was imaged with a Hitachi HT7700 electron microscope at an accelerating voltage of 120 kV, at the IMat Materials Characterization Facility of Georgia Institute of Technology. The images underwent processing using ImageJ software. Initially, to minimize noise, a Gaussian blur filter was applied. These images were then converted into an 8 bit binary format for edge detection. ImageJ identified particles ranging in size from 800 to 2000 pixels. An example of a processed image can be seen in Figure S14. The circularity of each particle was calculated using the formula circularity = 4π × area × perimeter^–2. […] A total of four images, each containing a minimum of 100 capsids, were analyzed to determine the proportion of the abnormal capsids. The entire experiment was duplicated, and the outcomes from both sets were then averaged.

Cp149 capsid assembly [2] = target: T1, Cp149 capsid assembly; assay: Size exclusion chromatography of Cp149 assembly; format: biochemical; settings: 20 μM Cp149, 40 μM CAM, 500 mM NaCl, 1 h, 37 °C
Experimental: The Cp149 protein solution and the compound solution were initially mixed in concentrations of 40 μM Cp149 and 80 μM compound and incubated for 1 h at 37 °C to allow the compound to bind to the protein. The NaCl solution was then added to the incubated mixture to final concentrations of 20 μM Cp149, 40 μM compound, and 500 mM NaCl to initiate the assembly of Cp149. This mixture was incubated at 37 °C for 1 h. Finally, […] of the sample was analyzed using a hand-poured Superose 6 column, at the flow rate of 0.4 mL/min, and the isocratic mobile phase was 50 mM HEPES (pH 7.5).

[3] = test system: HBV DNA replication in HepAD38 cells; assay: HBV DNA replication inhibition assay in HepAD38 cells (7 days, PCR of supernatant DNA); format: cell-based, hepatitis B virus; settings: Hepatitis B virus
Experimental: HepAD38 cells were seeded at 50,000 cells/well in collagen-coated 96-well plates. […] The experiment lasted 7 days. On day 7, total DNA was purified from the supernatant using a commercially available kit (DNeasy 96 Blood & Tissue kit, Qiagen). The HBV DNA was amplified in a polymerase chain reaction assay using LightCycler 480 II (Roche), as previously described.[63] All samples were tested in duplicate.

[4] = MTT cytotoxicity, PBM cells; format: cell-based, human; settings: human, peripheral blood mononuclear (PBM) cells
Experimental: (§1) Human peripheral blood mononuclear (PBM), T lymphoblast CEM-CCRF (herein referred to as CEM cells), African green monkey kidney (Vero), or human liver carcinoma (HepG2) cells were tested via MTT assay using the CellTiter 96 Non-Radioactive Cell Proliferation (Promega) kit as previously described.[63]

[5] = MTT cytotoxicity, CEM cells; format: cell-based, human; settings: human, T lymphoblast CEM-CCRF (CEM) cells
Experimental: as §1

[6] = MTT cytotoxicity, Vero cells; format: cell-based, African green monkey; settings: African green monkey, Vero cells (kidney)
Experimental: as §1

[7] = MTT cytotoxicity, HepG2 cells; format: cell-based, human; settings: human, HepG2 cells (liver carcinoma)
Experimental: as §1

[8] = MTT cytotoxicity, four cell lines taken together; format: cell-based; settings: human, African green monkey; PBM, CEM, Vero, HepG2; read-out: CC50 in all cell lines
Experimental: as §1

[9] = test system: human peripheral blood mononuclear (PBM) cells; assay: MTT cytotoxicity, PBM cells; format: cell-based; settings: 100 µM
Experimental: as §1

[10] = test system: African green monkey kidney (Vero) cells; assay: MTT cytotoxicity, Vero cells; format: cell-based; settings: Vero cells, 100 µM
Experimental: as §1

[11] = test system: human liver carcinoma (HepG2) cells; assay: MTT cytotoxicity, HepG2 cells; format: cell-based; settings: HepG2 cells, 100 µM
Experimental: as §1

Cp149 [12] = target: T2, Cp149 (Hepatitis B virus genotype D subtype adw, UniProt P03147); assay: Tryptophan fluorescence titration; format: binding; settings: 20 μM Cp149, compound up to 100 μM
T2 construct: The N-terminal domain of Cp (Cp149) is sufficient for forming regular capsids; made in house; host or cells: E. coli BL21(DE3)
T2 sequence (P03147 1-149): as above
Experimental: Each of the compounds was titrated into 100 μL of the protein solution to final concentrations of 0, 5, 10, 20, 50, and 100 μM in a clear bottom 96-well plate. […] Tryptophan fluorescence levels were measured by exciting the samples at 285 nm and measuring the emission at 340 nm with the Varioskan Flash (Thermo Fisher) plate reader. […] Fluorescence quenching was calculated by taking the difference of net fluorescence levels of each concentration and of the 0 μM sample. All the samples were run in triplicate, and the results were averaged. The dissociation constants (KD) were fitted by the one-site-specific binding model of GraphPad.[45]

[13] = test system: PBM, CEM, Vero and HepG2 cells; assay: MTT cytotoxicity, four cell lines taken together; format: cell-based
Experimental: as §1

[14] = MTS cytotoxicity (Table S4)
Cp149 [15] = target: T2, Cp149; design: method as in PMID 31712213; settings: read-out: previously reported dissociation constant (KD); cited from earlier work
[16] = HepAD38 cells, 10 μM, trial 1, read-out: % HBV DNA Inh. at 10 μM, trial 1

**Q.** Which “effect on capsid morphology (TEM)” value (Cp149 capsid assembly [1]) does the source give for `CCOC(=O)C1=C(CN2CCOCC2)NC(c2nccs2)=NC1c1ccc(F)cc1Br` (centres unmarked) [GLS4, reference compound] here?
**A.** Its value is “strong misdirecting effects”.

**Q.** And the “effect on distribution of dimers and capsids / capsid size (SEC)” value (Cp149 capsid assembly [2])?
**A.** The value was “strong enhancement of assembly”.

**Q.** Which inhibition at 10 µM ([3]; HepAD38 cells, 10 µM, first round of selected compounds, read-out: HBV DNA inhibition (%) at 10 µM) does the source give for `Cc1cc2nc(-c3ccccn3)c(-c3ccccn3)nc2cc1C` [GT-5] here?
**A.** Its inhibition at 10 µM is 24.7%.

**Q.** And the inhibition at 10 µM [3, 16]?
**A.** Its inhibition at 10 µM is 24%.

**Q.** What about the CC50 [4] of the same compound?
**A.** Its CC50 is greater than 100 µM.

**Q.** And the CC50 [5]?
**A.** The CC50 was greater than 100 µM.

**Q.** What about the CC50 [6] of the same compound?
**A.** Its CC50 is greater than 100 µM.

**Q.** What about the CC50 [7] of the same compound?
**A.** The CC50 was greater than 100 µM.

**Q.** And the CC50 [8]?
**A.** Its CC50 is greater than 100 µM.

**Q.** What does the source list for `CCn1ccnc1-c1c(-c2ccccc2)ncn1CCCc1cccnc1` [GT-39]?
**A.** inhibition at 200 µM ([3]; HePAD38, 200 µM, additional testing, Table S4, read-out: Anti-HBV activity in HepAD38 cells, % Inh. at 200 µM ± SD): 39.1 ± 1.5%; EC50 ([3]; HePAD38, additional testing, Table S4, read-out: Anti-HBV activity in HepAD38 cells, EC50): > 200 µM; inhibition at 10 µM [3, 16]: 57%; inhibition at 10 µM ([3]; HepAD38 cells, 10 μM, trial 2, read-out: % HBV DNA Inh. at 10 μM, trial 2): 50%; inhibition at 10 µM ([3]; HepAD38 cells, 10 µM, trial 3, read-out: % HBV DNA Inh. at 10 µM, trial 3): < 1%; inhibition at 10 µM ([3]; HepAD38 cells, 10 µM, trial 4, read-out: % HBV DNA Inh. at 10 µM, trial 4): 36%; inhibition at 10 µM ([3]; HepAD38 cells, 10 μM, read-out: % inhibition in at least one of the trials): > 50%; EC50 ([3]; HepAD38 cells, trial 1, read-out: EC50, trial 1): < 10 µM; EC50 ([3]; HepAD38 cells, trial 2, read-out: EC50, trial 2): 10 µM; EC50 ([3]; HepAD38 cells, trial 3, read-out: EC50, trial 3): > 10 µM; EC50 ([3]; HepAD38 cells, trial 4, read-out: EC50, trial 4): > 100 µM; CC50 [4]: > 100 µM; percent cytotoxicity (cell growth inhibition) at 100 µM [9]: 22%; CC50 [5]: 16 µM; CC50 [6]: > 100 µM; % cytotoxicity (MTT) at 100 µM [10]: 47%; CC50 [7]: > 100 µM; percent cytotoxicity (MTT) at 100 µM, HepG2 [11]: 32%; tryptophan fluorescence quenching (Cp149 [12]): reproducible but modest fluorescence quenching; effect on capsid morphology (TEM) (Cp149 capsid assembly [1]): induced misdirected products; % abnormal capsids, Trial 1 (Cp149 capsid assembly [1]; 500 mM NaCl): 45%; % abnormal capsids, Trial 2 (Cp149 capsid assembly [1]; 500 mM NaCl): 36%; toxicity in at least one cell line tested [13]: 16 to 18 µM; IC50 (in vitro): > 200 µM; MTS cytotoxicity, % Inh. at 200 µM [14]: < 1%

**Q.** For `C#CCNC(=O)C(=O)c1c(C)c(C(=O)Nc2ccc(F)c(F)c2)n(C)c1C` [GLP-26], which Kd (Cp149 [15]) is on record?
**A.** The Kd was 0.7 µM.
